Values joined by “and” are separate entries in the source; they are usually repeats but may differ in a detail not shown here. Identical values can stand only once. Toxic doses and inconclusive results are not listed.
Tested on: P388 leukemia ip, CD2F1 mice, survival T/C
Test: NCI In Vivo Anticancer Drug Screen. Data for tumor model P388 Leukemia (intraperitoneal) in CD2F1 (CDF1) mice
Conditions: endpoint: median survival time, higher = longer survival
In short: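 Mice carrying the transplanted tumor received test compound or vehicle. Survival was recorded in each group, and the value is the treated-group measurement divided by that of the vehicle-treated control group.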

[1] = dose: 60.0 mg/kg/injection, schedule: Q01DX005 (ip), vehicle: saline with Tween-80
[2] = dose: 120.0 mg/kg/injection, schedule: Q01DX005 (ip), vehicle: saline with Tween-80
[3] = dose: 240.0 mg/kg/injection, schedule: Q01DX005 (ip), vehicle: saline with Tween-80
[4] = dose: 50.0 mg/kg/injection, schedule: Q04DX003 (ip), vehicle: saline with Tween-80
[5] = dose: 100.0 mg/kg/injection, schedule: Q04DX003 (ip), vehicle: saline with Tween-80
[6] = dose: 50.0 mg/kg/injection, schedule: Q01DX005 (ip), vehicle: saline with Tween-80
[7] = dose: 100.0 mg/kg/injection, schedule: Q01DX005 (ip), vehicle: saline with Tween-80
[8] = dose: 200.0 mg/kg/injection, schedule: Q01DX005 (ip), vehicle: saline with Tween-80
[9] = dose: 25.0 mg/kg/injection, schedule: Q01DX009 (ip), vehicle: Klucel (hydroxypropylcellulose) (HPC)
[10] = dose: 50.0 mg/kg/injection, schedule: Q01DX005 (ip), vehicle: Klucel (hydroxypropylcellulose) (HPC)
[11] = dose: 100.0 mg/kg/injection, schedule: Q01DX005 (ip), vehicle: Klucel (hydroxypropylcellulose) (HPC)
[12] = dose: 200.0 mg/kg/injection, schedule: Q01DX005 (ip), vehicle: Klucel (hydroxypropylcellulose) (HPC)
[13] = dose: 50.0 mg/kg/injection, schedule: Q01DX009 (ip), vehicle: saline with Tween-80
[14] = dose: 100.0 mg/kg/injection, schedule: Q01DX009 (ip), vehicle: saline with Tween-80
[15] = dose: 200.0 mg/kg/injection, schedule: Q01DX009 (ip), vehicle: saline with Tween-80
[16] = dose: 100.0 mg/kg/injection, schedule: Q01DX009 (ip), vehicle: Klucel (hydroxypropylcellulose) (HPC)

In the case of `COC(=O)c1cn(NS(=O)(=O)c2ccc(OC)cc2)cc1C(=O)OC`, the T/C [1] is reported as 96 % of control, the T/C [2] is reported as 101 % of control and the T/C [3] is reported as 104 % of control.

With `CCCc1nc2c(=O)[nH]cnc2o1` the T/C (dose: 50.0 mg/kg/injection, schedule: Q01DX001 (ip), vehicle: saline with Tween-80) was 100 % of control, the T/C (dose: 100.0 mg/kg/injection, schedule: Q01DX001 (ip), vehicle: saline with Tween-80) was 100 % of control and the T/C (dose: 200.0 mg/kg/injection, schedule: Q01DX001 (ip), vehicle: saline with Tween-80) was 100 % of control.

`O=[N+]([O-])c1ccsc1SSc1sccc1[N+](=O)[O-]` was tested, and the T/C (dose: 25.0 mg/kg/injection, schedule: Q04DX003 (ip), vehicle: saline with Tween-80) was 102 % of control, the T/C [4] was 102 % of control and the T/C (dose: 100.0 mg/kg/injection, schedule: Q01DX001 (ip), vehicle: Klucel (hydroxypropylcellulose) (HPC)) was 102 % of control. The T/C [5] was 100 % of control, the T/C (dose: 200.0 mg/kg/injection, schedule: Q01DX001 (ip), vehicle: Klucel (hydroxypropylcellulose) (HPC)) was 102 % of control and the T/C (dose: 400.0 mg/kg/injection, schedule: Q01DX001 (ip), vehicle: Klucel (hydroxypropylcellulose) (HPC)) was 96 % of control.

In the case of `C=C(C)c1ccc2c(c1)[C@H](OC(=O)c1ccccc1)C[C@H]1[C@](C)(COC(=O)c3ccccc3)CCC[C@]21C`, the T/C [1] is reported as 105 % of control, the T/C [2] is reported as 92 % of control and the T/C [3] is reported as 90 % of control.

With `CNC(=O)c1ccccc1C1(O)c2ccccc2CCc2ccccc21` the T/C [6] was 94 % of control, the T/C [7] was 93 % of control and the T/C [8] was 90 % of control.

With `C1CCC2=NCCCN2CC1` the T/C (dose: 6.25 mg/kg/injection, schedule: Q01DX009 (ip), vehicle: Klucel (hydroxypropylcellulose) (HPC)) was 107 % of control, the T/C (dose: 12.5 mg/kg/injection, schedule: Q01DX009 (ip), vehicle: Klucel (hydroxypropylcellulose) (HPC)) was 103 % of control and the T/C [9] was 105 % of control.

In the case of `O=C(/C=C/c1ccccc1)c1ccc(O)cc1`, the T/C (dose: 6.25 mg/kg/injection, schedule: Q01DX009 (ip), vehicle: saline with Tween-80) is reported as 103 % of control, the T/C (dose: 12.5 mg/kg/injection, schedule: Q01DX009 (ip), vehicle: saline with Tween-80) is reported as 109 % of control and the T/C (dose: 25.0 mg/kg/injection, schedule: Q01DX009 (ip), vehicle: saline with Tween-80) is reported as 110 % of control. For the same compound, the T/C [4] was 98 % of control, the T/C [5] was 98 % of control and the T/C (dose: 400.0 mg/kg/injection, schedule: Q04DX003 (ip), vehicle: saline with Tween-80) was 114 % of control.

With `C#CCOC(=O)C(Cl)(Cl)Cl` the T/C (dose: 100.0 mg/kg/injection, schedule: Q04DX003 (ip), vehicle: saline) was 107 % of control and the T/C (dose: 200.0 mg/kg/injection, schedule: Q04DX003 (ip), vehicle: saline) was 115 % of control.

In the case of `COCCN[C@@H]1C[C@@](C)(O)Cc2cc3c(c(O)c21)C(=O)c1c(O)cc2c(c1C3=O)O[C@H]1O[C@]2(C)[C@@H](O)[C@H](N(C)C)[C@H]1O`, the T/C (dose: 2.5 mg/kg/injection, schedule: Q01DX009 (ip), vehicle: other) is reported as 105 % of control, the T/C (dose: 5.0 mg/kg/injection, schedule: Q01DX009 (ip), vehicle: other) is reported as 105 % of control and the T/C (dose: 7.5 mg/kg/injection, schedule: Q01DX009 (ip), vehicle: other) is reported as 120 % of control. The T/C (dose: 10.0 mg/kg/injection, schedule: Q01DX009 (ip), vehicle: other) was 111 % of control and the T/C (dose: 60.0 mg/kg/injection, schedule: Q01DX009 (ip), vehicle: other) was 154 % of control.

In the case of `CC(=O)N/N=C1\CCC2CCC1C2` (configuration not stated), the T/C [10] is reported as 100 % of control, the T/C [11] is reported as 99 % of control and the T/C [12] is reported as 96 % of control.

For `O=C(N/C(=C/c1ccccc1)C(=O)N1CCN(C(=O)/C(=C\c2ccccc2)NC(=O)c2ccccc2)CC1)c1ccccc1`, the T/C [6] was 93 % of control, the T/C [7] was 92 % of control and the T/C [8] was 93 % of control.

In the case of `O=C1CCCc2c1ccn2Cc1ccccc1`, the T/C (dose: 25.0 mg/kg/injection, schedule: Q04DX003 (ip), vehicle: Klucel (hydroxypropylcellulose) (HPC)) is reported as 105 % of control, the T/C (dose: 50.0 mg/kg/injection, schedule: Q04DX003 (ip), vehicle: Klucel (hydroxypropylcellulose) (HPC)) is reported as 100 % of control and the T/C (dose: 100.0 mg/kg/injection, schedule: Q04DX003 (ip), vehicle: Klucel (hydroxypropylcellulose) (HPC)) is reported as 100 % of control. The T/C (dose: 200.0 mg/kg/injection, schedule: Q04DX003 (ip), vehicle: Klucel (hydroxypropylcellulose) (HPC)) was 99 % of control.

With `CC(=O)N/C(=C\c1ccc([N+](=O)[O-])cc1)c1nc2ccccc2s1` the T/C [1] was 110 % of control, the T/C [2] was 107 % of control and the T/C [3] was 113 % of control.

For `COC(=O)c1ccc(N=NN(C)C)cc1`, the T/C (dose: 25.0 mg/kg/injection, schedule: Q01DX009 (ip), vehicle: saline) was 100 % of control and 97 % of control, the T/C (dose: 25.0 mg/kg/injection, schedule: Q01DX009 (ip), vehicle: suspension in saline) was 103 % of control and the T/C (dose: 50.0 mg/kg/injection, schedule: Q01DX009 (ip), vehicle: saline) was 113 % of control and 92 % of control. The T/C (dose: 50.0 mg/kg/injection, schedule: Q01DX009 (ip), vehicle: suspension in saline) was 91 % of control, the T/C (dose: 100.0 mg/kg/injection, schedule: Q01DX009 (ip), vehicle: saline) was 103 % of control and 94 % of control and the T/C (dose: 200.0 mg/kg/injection, schedule: Q01DX009 (ip), vehicle: saline) was 108 % of control. For the same compound, the T/C (dose: 200.0 mg/kg/injection, schedule: Q01DX009 (ip), vehicle: suspension in saline) was 101 % of control.

With `CCNCCC1(C)Oc2ccccc2O1` the T/C (dose: 100.0 mg/kg/injection, schedule: Q01DX001 (ip), vehicle: saline) was 97 % of control.

With `CNc1ccccc1C(=O)NN=C1c2ccccc2-c2ccccc21` the T/C [13] was 100 % of control, the T/C [14] was 106 % of control and the T/C [15] was 99 % of control.

With `COc1cc(CC2C(=O)OCC2Cc2cc(OC)c(O)c(C(CO)C(O)c3ccc(O)c(OC)c3)c2)ccc1O` (configuration not stated) the T/C (dose: 5.0 mg/kg/injection, schedule: Q01DX009 (ip), vehicle: saline) was 96 % of control, the T/C (dose: 10.0 mg/kg/injection, schedule: Q01DX009 (ip), vehicle: saline) was 107 % of control and the T/C (dose: 20.0 mg/kg/injection, schedule: Q01DX009 (ip), vehicle: saline) was 105 % of control. The T/C (dose: 40.0 mg/kg/injection, schedule: Q01DX009 (ip), vehicle: saline) was 102 % of control.

With `CCCC(=O)O[C@H]1/C(=C/C(=O)OC)C[C@H]2C[C@H]([C@@H](C)O)OC(=O)C[C@H](O)C[C@@H]3C[C@H](OC(=O)CC(C)C)C(C)(C)[C@](O)(C[C@@H]4C/C(=C\C(=O)OC)C[C@H](/C=C/C(C)(C)[C@]1(O)O2)O4)O3` the T/C (dose: 0.01 mg/kg/injection, schedule: Q01DX009 (ip), vehicle: saline + alcohol) was 111 % of control and the T/C (dose: 0.05 mg/kg/injection, schedule: Q01DX009 (ip), vehicle: saline + alcohol) was 113 % of control.

With `O=[N+]([O-])c1ccc(S(=O)(=O)/N=C/c2ccccc2)cc1` the T/C [13] was 96 % of control, the T/C [14] was 98 % of control and the T/C [15] was 95 % of control.

With `Nc1ccc(N)c2c1C(=O)c1c(N)ccc(N)c1C2=O` the T/C [10] was 102 % of control, the T/C [11] was 100 % of control and the T/C [12] was 101 % of control.

With `O=c1oc(-c2ccc(Cl)c([N+](=O)[O-])c2)ns1` the T/C [16] was 107 % of control and the T/C (dose: 200.0 mg/kg/injection, schedule: Q01DX009 (ip), vehicle: Klucel (hydroxypropylcellulose) (HPC)) was 113 % of control.

In the case of `CNc1ccc(F)cc1SSc1cc(F)ccc1NC`, the T/C [9] is reported as 108 % of control, the T/C (dose: 50.0 mg/kg/injection, schedule: Q01DX009 (ip), vehicle: Klucel (hydroxypropylcellulose) (HPC)) is reported as 110 % of control and the T/C [16] is reported as 115 % of control.

For `O=C1C=C(NCc2ccccc2)CCC1`, the T/C (dose: 1.56 mg/kg/injection, schedule: Q01DX009 (ip), vehicle: saline) was 109 % of control, the T/C (dose: 3.12 mg/kg/injection, schedule: Q01DX009 (ip), vehicle: saline) was 113 % of control and the T/C (dose: 6.25 mg/kg/injection, schedule: Q01DX009 (ip), vehicle: saline) was 100 % of control.

With `C(=C\c1cc2ccc(C3=NCCN3)cc2[nH]1)/c1ccc(Oc2ccc(C3=NCCN3)cc2)cc1` the T/C (dose: 3.12 mg/kg/injection, schedule: Q04DX003 (ip), vehicle: saline) was 108 % of control, the T/C (dose: 6.25 mg/kg/injection, schedule: Q04DX003 (ip), vehicle: saline) was 103 % of control and the T/C (dose: 12.5 mg/kg/injection, schedule: Q04DX003 (ip), vehicle: saline) was 111 % of control. For the same compound, the T/C (dose: 25.0 mg/kg/injection, schedule: Q04DX003 (ip), vehicle: saline) was 120 % of control.

From PubChem BioAssay AID330 (DTP/NCI, 2004)
